# Test results published in PMC7374060, “An Antivirulence Approach for Preventing Cryptococcus neoformans from Crossing the Blood-Brain Barrier via Novel Natural Product Inhibitors of a Fungal Metalloprotease” (mBio, 2020).
# Biological target: T1, Mpr1 (Cryptococcus neoformans, UniProt J9VXZ9)
# T1 construct: gene CNAG_04735; recombinant His-tagged Mpr1 secreted from Pichia pastoris expressing CnMPR1-HIS cDNA
# Assay: FITC-casein proteolysis assay with purified recombinant Mpr1-His
# Assay type: biochemical
# T1 sequence (J9VXZ9 entry or part of it): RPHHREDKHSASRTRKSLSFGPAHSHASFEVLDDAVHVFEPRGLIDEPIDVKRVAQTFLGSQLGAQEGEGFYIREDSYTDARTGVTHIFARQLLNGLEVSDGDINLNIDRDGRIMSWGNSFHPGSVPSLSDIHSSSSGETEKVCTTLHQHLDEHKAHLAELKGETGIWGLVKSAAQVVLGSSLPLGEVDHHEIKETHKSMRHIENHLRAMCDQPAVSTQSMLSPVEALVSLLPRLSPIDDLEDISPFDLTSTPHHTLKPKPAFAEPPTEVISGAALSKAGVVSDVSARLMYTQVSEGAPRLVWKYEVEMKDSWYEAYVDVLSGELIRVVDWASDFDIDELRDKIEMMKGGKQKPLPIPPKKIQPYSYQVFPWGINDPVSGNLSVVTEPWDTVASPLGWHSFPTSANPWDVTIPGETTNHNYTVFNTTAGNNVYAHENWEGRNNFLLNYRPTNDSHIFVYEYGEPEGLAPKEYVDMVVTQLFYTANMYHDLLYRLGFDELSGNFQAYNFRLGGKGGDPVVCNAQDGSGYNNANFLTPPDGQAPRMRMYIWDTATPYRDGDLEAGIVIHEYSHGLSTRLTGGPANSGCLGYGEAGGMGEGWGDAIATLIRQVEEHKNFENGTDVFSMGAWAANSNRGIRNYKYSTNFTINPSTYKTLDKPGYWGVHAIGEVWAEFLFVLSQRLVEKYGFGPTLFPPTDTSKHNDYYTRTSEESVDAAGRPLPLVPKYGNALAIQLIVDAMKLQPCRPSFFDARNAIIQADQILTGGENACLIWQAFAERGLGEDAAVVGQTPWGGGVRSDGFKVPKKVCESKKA
row,Compound,IC50
1,"C[C@@H]1CC[C@@]2(OC1)O[C@H]1C[C@H]3[C@@H]4CC=C5C[C@@H](O)CC[C@]5(C)[C@H]4CC[C@]3(C)[C@H]1[C@@H]2C [NP002-1D9, diosgenin]",5.03 µM
2,"OC[C@@H]1CCCN2CCCC[C@H]12 [NP003-2B11, lupinine]",9.66 µM
3,"CC(C)C1=CC2=CC[C@@H]3[C@](C)(CCC[C@@]3(C)C(=O)O)[C@H]2CC1 [NP001-1C11, abietic acid]",5.14 µM
